According to ChEMBL document CHEMBL1781986, “Structure-activity relationships of pyrrole based S-nitrosoglutathione reductase inhibitors: pyrrole regioisomers and propionic acid replacement” (Bioorg Med Chem Lett, 2011):
Calls of active or inactive are those of the source. The calls are words filed in the database; no cut-off is given here.

Legend:
[1] = target: T1, Adenosine receptor A1 (Homo sapiens) (UniProt P30542); assay: Inhibition of human recombinant A1 receptor at 10 uM by radioligand binding assay
T1 sequence (whole entry): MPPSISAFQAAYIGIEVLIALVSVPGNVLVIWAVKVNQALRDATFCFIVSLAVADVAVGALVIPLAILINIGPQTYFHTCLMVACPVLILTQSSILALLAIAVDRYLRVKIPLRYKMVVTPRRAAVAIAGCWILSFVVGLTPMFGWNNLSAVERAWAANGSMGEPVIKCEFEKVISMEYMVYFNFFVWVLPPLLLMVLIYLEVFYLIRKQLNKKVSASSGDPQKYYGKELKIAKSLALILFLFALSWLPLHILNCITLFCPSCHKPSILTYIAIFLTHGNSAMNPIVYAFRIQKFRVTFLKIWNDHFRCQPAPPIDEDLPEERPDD

[2] = species: Homo sapiens; assay: Inhibition of human recombinant BZD receptor at 10 uM by radioligand binding assay
[3] = target: Cannabinoid receptor 1 (Homo sapiens) (UniProt P21554); assay: Inhibition of human recombinant CB1 receptor at 10 uM by radioligand binding assay
Sequence of Cannabinoid receptor 1 (Homo sapiens) (P21554 whole entry): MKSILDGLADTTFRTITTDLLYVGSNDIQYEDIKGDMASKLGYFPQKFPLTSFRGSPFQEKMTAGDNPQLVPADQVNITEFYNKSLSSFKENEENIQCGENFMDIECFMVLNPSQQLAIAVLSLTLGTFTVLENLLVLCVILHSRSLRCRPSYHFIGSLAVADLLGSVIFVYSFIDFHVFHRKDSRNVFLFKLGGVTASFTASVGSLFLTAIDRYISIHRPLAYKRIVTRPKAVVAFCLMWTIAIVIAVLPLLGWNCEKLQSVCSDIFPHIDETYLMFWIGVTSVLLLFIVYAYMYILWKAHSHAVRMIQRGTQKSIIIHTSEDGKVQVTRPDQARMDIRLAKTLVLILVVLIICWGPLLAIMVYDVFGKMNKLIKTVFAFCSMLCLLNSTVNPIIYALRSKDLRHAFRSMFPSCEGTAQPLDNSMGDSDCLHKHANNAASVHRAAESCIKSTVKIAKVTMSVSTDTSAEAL

[4] = target: T2, Cholecystokinin receptor type A (Homo sapiens) (UniProt P32238); assay: Inhibition of human recombinant CCK1 receptor at 10 uM by radioligand binding assay
T2 sequence (whole entry): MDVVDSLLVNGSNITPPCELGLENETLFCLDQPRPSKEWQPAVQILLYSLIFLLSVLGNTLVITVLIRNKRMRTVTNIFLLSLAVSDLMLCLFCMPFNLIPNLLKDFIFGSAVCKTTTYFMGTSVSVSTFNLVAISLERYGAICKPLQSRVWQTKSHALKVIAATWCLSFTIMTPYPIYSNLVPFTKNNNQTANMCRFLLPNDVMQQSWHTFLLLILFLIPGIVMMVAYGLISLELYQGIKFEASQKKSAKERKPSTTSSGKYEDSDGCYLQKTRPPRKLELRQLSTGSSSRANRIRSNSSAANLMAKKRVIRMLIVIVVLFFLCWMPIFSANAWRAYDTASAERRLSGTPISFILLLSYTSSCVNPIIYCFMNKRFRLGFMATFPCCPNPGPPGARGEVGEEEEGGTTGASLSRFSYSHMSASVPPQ

[5] = target: T3, Muscarinic acetylcholine receptor M2 (Homo sapiens) (UniProt P08172); assay: Inhibition of human recombinant M2 receptor at 10 uM by radioligand binding assay
T3 sequence (whole entry): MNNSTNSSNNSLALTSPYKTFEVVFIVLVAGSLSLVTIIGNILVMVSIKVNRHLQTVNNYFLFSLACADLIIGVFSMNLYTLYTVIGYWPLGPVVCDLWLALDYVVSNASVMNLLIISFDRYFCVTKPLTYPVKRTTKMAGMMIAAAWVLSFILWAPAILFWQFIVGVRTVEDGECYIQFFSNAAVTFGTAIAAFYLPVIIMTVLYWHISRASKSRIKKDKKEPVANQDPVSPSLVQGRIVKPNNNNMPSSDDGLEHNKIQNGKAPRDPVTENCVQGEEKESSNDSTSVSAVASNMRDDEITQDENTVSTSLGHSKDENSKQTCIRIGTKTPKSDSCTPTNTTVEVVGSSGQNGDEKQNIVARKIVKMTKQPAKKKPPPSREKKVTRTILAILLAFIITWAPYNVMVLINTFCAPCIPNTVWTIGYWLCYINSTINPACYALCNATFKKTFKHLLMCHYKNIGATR

[6] = species: Homo sapiens; assay: Inhibition of human recombinant sodium channel at 10 uM by radioligand binding assay
[7] = tested on: A549; assay: Cytotoxicity against human A549 cells; assay type: functional, cell-based

Cc1cc(C(N)=O)ccc1-n1c(CCC(=O)O)ccc1-c1ccc(-n2ccnc2)cc1 [N6022]
inhibition [1]: inactive
inhibition [2]: inactive
inhibition [3]: inactive
inhibition [4]: inactive
inhibition [5]: inactive
inhibition [6]: inactive

Cc1cc(C(N)=O)ccc1-c1c(-c2ccc(-n3ccnc3)cc2)ccn1CCC(=O)O
inhibition [1]: inactive
inhibition [2]: inactive
inhibition [3]: inactive
inhibition [4]: inactive
inhibition [5]: inactive
inhibition [6]: inactive

Cc1cc(C(N)=O)ccc1-c1c(CCC(=O)O)ccn1-c1ccc(-n2ccnc2)cc1
inhibition [1]: inactive
inhibition [2]: inactive
inhibition [3]: inactive
inhibition [4]: inactive
inhibition [5]: inactive
inhibition [6]: inactive
IC50 [7]: > 250 µM

COc1ccc(-c2ccn(-c3ccc(C(=O)O)c(O)c3)c2-c2ccc(C(N)=O)cc2C)cc1
inhibition [1]: Active
inhibition [2]: Active
inhibition [3]: Active
inhibition [4]: Active
inhibition [5]: Active
inhibition [6]: Active

COc1ccc(-c2ccn(-c3ccc(O)c([N+](=O)[O-])c3)c2-c2ccc(C(N)=O)cc2C)cc1
inhibition [1]: Active
inhibition [2]: Active
inhibition [3]: Active
inhibition [4]: Active
inhibition [5]: Active
inhibition [6]: Active
